Measured values reported in ChEMBL document CHEMBL2380232, “Triazole derivatives: a series of Darapladib analogues as orally active Lp-PLA2 inhibitors” (Bioorg Med Chem Lett, 2013).
Active and inactive are the calls of the source. No cut-off for these calls is given here.

Tests used:
Oryctolagus cuniculus [1] = species on record: Oryctolagus cuniculus; settings: Plasma, 10 nM
Description: Inhibition of Lp-PLA2 in rabbit plasma using [3H]PAF as substrate at 10 nM incubated for 5 mins prior to substrate addition measured after 10 mins by liquid scintillation counting analysis relative to control

Oryctolagus cuniculus [2] = species on record: Oryctolagus cuniculus; settings: Plasma, 100 nM
Description: Inhibition of Lp-PLA2 in rabbit plasma using [3H]PAF as substrate at 100 nM incubated for 5 mins prior to substrate addition measured after 10 mins by liquid scintillation counting analysis relative to control

Mus musculus = species on record: Mus musculus; settings: C57, 50 mg/kg
Description: In vivo inhibition of Lp-PLA2 in C57 mouse serum using 2-thio-PAF as substrate at 50 mg/kg, po measured over 24 hrs

| inhibition (Oryctolagus cuniculus [1]) | inhibition (Oryctolagus cuniculus [2]) | SMILES | inhibition (Mus musculus) |
| --- | --- | --- | --- |
| 76% | 97% | CN(CCN1CCCC1)Cc1nnc(Cn2c(SCc3ccc(F)cc3)nc(=O)c3c2CCC3)n1Cc1ccc(-c2ccc(C(F)(F)F)cc2)cc1 | – |
| 32% | – | O=c1nc(SCc2ccc(F)cc2)n(Cc2nnc(CNCCN3CCOCC3)n2Cc2ccc(-c3ccc(C(F)(F)F)cc3)cc2)c2c1CCC2 | – |
| 33% | – | O=c1nc(SCc2ccc(F)cc2)n(Cc2nnc(CNCCN3CCCCC3)n2Cc2ccc(-c3ccc(C(F)(F)F)cc3)cc2)c2c1CCC2 | – |
| 13% | – | COCCNCc1nnc(Cn2c(SCc3ccc(F)cc3)nc(=O)c3c2CCC3)n1Cc1ccc(-c2ccc(C(F)(F)F)cc2)cc1 | – |
| 54% | 92% | CN(CCN1CCCCC1)Cc1cnc(Cn2c(SCc3ccc(F)cc3)nc(=O)c3c2CCC3)n1Cc1ccc(-c2ccc(C(F)(F)F)cc2)cc1 | – |
| 71% | – | CC(c1nnc(Cn2c(SCc3ccc(F)cc3)nc(=O)c3c2CCC3)n1Cc1ccc(-c2ccc(C(F)(F)F)cc2)cc1)N(C)CCCN(C)C (configuration not stated) | – |
| 36% | – | CN(Cc1ccccn1)Cc1nnc(Cn2c(SCc3ccc(F)cc3)nc(=O)c3c2CCC3)n1Cc1ccc(-c2ccc(C(F)(F)F)cc2)cc1 | – |
| 41% | – | CC(C)N(CCNCc1nnc(Cn2c(SCc3ccc(F)cc3)nc(=O)c3c2CCC3)n1Cc1ccc(-c2ccc(C(F)(F)F)cc2)cc1)C(C)C | – |
| 5% | 74% | CN(CC(=O)O)Cc1nnc(Cn2c(SCc3ccc(F)cc3)nc(=O)c3c2CCC3)n1Cc1ccc(-c2ccc(C(F)(F)F)cc2)cc1 | – |
| 73% | – | CCN(CC)CCCc1nnc(Cn2c(SCc3ccc(F)cc3)nc(=O)c3c2CCC3)n1Cc1ccc(-c2ccc(C(F)(F)F)cc2)cc1 | inactive |
| 35% | – | CCN(CC)CCNCc1nnc(Cn2c(SCc3ccc(F)cc3)nc(=O)c3c2CCC3)n1Cc1ccc(-c2ccc(C(F)(F)F)cc2)cc1 | – |
| 76% | 96% | O=c1nc(SCc2ccc(F)cc2)n(Cc2nnc(CCCN3CCCCC3)n2Cc2ccc(-c3ccc(C(F)(F)F)cc3)cc2)c2c1CCC2 | – |
| 54% | 89% | CCN(CC)CCN(C)Cc1cnc(Cn2c(SCc3ccc(F)cc3)nc(=O)c3c2CCC3)n1Cc1ccc(-c2ccc(C(F)(F)F)cc2)cc1 | – |
| 55% | – | O=c1nc(SCc2ccc(F)cc2)n(Cc2nnc(CNCCN3CCCC3)n2Cc2ccc(-c3ccc(C(F)(F)F)cc3)cc2)c2c1CCC2 | – |
| 76% | – | CCN(CC)CCN(C)C(C)c1nnc(Cn2c(SCc3ccc(F)cc3)nc(=O)c3c2CCC3)n1Cc1ccc(-c2ccc(C(F)(F)F)cc2)cc1 (configuration not stated) | Active |
| 54% | – | CN(C)[C@@H]1CCN(Cc2nnc(Cn3c(SCc4ccc(F)cc4)nc(=O)c4c3CCC4)n2Cc2ccc(-c3ccc(C(F)(F)F)cc3)cc2)C1 | – |
| 71% | – | CC(c1nnc(Cn2c(SCc3ccc(F)cc3)nc(=O)c3c2CCC3)n1Cc1ccc(-c2ccc(C(F)(F)F)cc2)cc1)N(C)CCN(C)C (configuration not stated) | – |
| 46% | – | CN(C)[C@H]1CCN(Cc2nnc(Cn3c(SCc4ccc(F)cc4)nc(=O)c4c3CCC4)n2Cc2ccc(-c3ccc(C(F)(F)F)cc3)cc2)C1 | – |
| 72% | – | CCN(CC)CCN(C)Cc1nnc(Cn2c(SCc3ccc(F)cc3)nc(=O)c3c2CCC3)n1Cc1ccc(-c2ccc(C(F)(F)F)cc2)cc1 | Active |
| 82% | 99% | CCN(CC)CCN(Cc1ccc(-c2ccc(C(F)(F)F)cc2)cc1)C(=O)Cn1c(SCc2ccc(F)cc2)nc(=O)c2c1CCC2 | – |
| 75% | – | CCN(CCN(C)C)Cc1nnc(Cn2c(SCc3ccc(F)cc3)nc(=O)c3c2CCC3)n1Cc1ccc(-c2ccc(C(F)(F)F)cc2)cc1 | – |
| 75% | 97% | CN(CCN1CCCCC1)Cc1nnc(Cn2c(SCc3ccc(F)cc3)nc(=O)c3c2CCC3)n1Cc1ccc(-c2ccc(C(F)(F)F)cc2)cc1 | Active |
| 74% | 95% | CCN(CC)CCCCc1nnc(Cn2c(SCc3ccc(F)cc3)nc(=O)c3c2CCC3)n1Cc1ccc(-c2ccc(C(F)(F)F)cc2)cc1 | inactive |
| 33% | 95% | CCN(CC)CCN(Cc1nnc(Cn2c(SCc3ccc(F)cc3)nc(=O)c3c2CCC3)n1Cc1ccc(-c2ccc(C(F)(F)F)cc2)cc1)C(C)C | – |
| 77% | – | CN(C)CCN(C)Cc1nnc(Cn2c(SCc3ccc(F)cc3)nc(=O)c3c2CCC3)n1Cc1ccc(-c2ccc(C(F)(F)F)cc2)cc1 | – |
| 73% | – | CN(C)CCCN(C)Cc1nnc(Cn2c(SCc3ccc(F)cc3)nc(=O)c3c2CCC3)n1Cc1ccc(-c2ccc(C(F)(F)F)cc2)cc1 | – |
| 75% | 97% | O=c1nc(SCc2ccc(F)cc2)n(Cc2nnc(CCCN3CCCC3)n2Cc2ccc(-c3ccc(C(F)(F)F)cc3)cc2)c2c1CCC2 | – |
